Results reported in ChEMBL document CHEMBL4507285, “Data for DCP probe MRL-SYKi” (2021).

Columns and labels:
[1] = biological target: Cyclin-dependent kinase-like 1 (Homo sapiens) (UniProt Q00532); details: Compound concentration 100.0 nM
[2] = test system: Mast/stem cell growth factor receptor Kit (Homo sapiens), P10721 [V559D,V654A]; details: Compound concentration 100.0 nM
[3] = biological target: Dual specificity mitogen-activated protein kinase kinase 6 (Homo sapiens) (UniProt P52564); details: Compound concentration 100.0 nM
[4] = test system: Mast/stem cell growth factor receptor Kit (Homo sapiens), P10721 [D816V]; details: Compound concentration 100.0 nM
[5] = biological target: Ribosomal protein S6 kinase alpha-4 (Homo sapiens) (UniProt O75676); details: Compound concentration 100.0 nM
[6] = biological target: cGMP-dependent protein kinase 2 (Homo sapiens) (UniProt Q13237); details: Compound concentration 100.0 nM
[7] = biological target: Ephrin type-B receptor 3 (Homo sapiens) (UniProt P54753); details: Compound concentration 100.0 nM
[8] = biological target: Ribosomal protein S6 kinase alpha-5 (Homo sapiens) (UniProt O75582); details: Compound concentration 100.0 nM
[9] = test system: Epidermal growth factor receptor (Homo sapiens), P00533 [G719C]; details: Compound concentration 100.0 nM
[10] = biological target: Serine/threonine-protein kinase 16 (Homo sapiens) (UniProt O75716); details: Compound concentration 100.0 nM
[11] = test system: Tyrosine-protein kinase ABL1 (Homo sapiens), P00519 [Q252H]; details: Compound concentration 100.0 nM
[12] = biological target: Insulin receptor-related protein (Homo sapiens) (UniProt P14616); details: Compound concentration 100.0 nM
[13] = biological target: MAP kinase-interacting serine/threonine-protein kinase 2 (Homo sapiens) (UniProt Q9HBH9); details: Compound concentration 100.0 nM
[14] = biological target: Activin receptor type-1-like (Homo sapiens) (UniProt P37023); details: Compound concentration 100.0 nM
[15] = biological target: Serine/threonine-protein kinase 38-like (Homo sapiens) (UniProt Q9Y2H1); details: Compound concentration 100.0 nM
[16] = biological target: Homeodomain-interacting protein kinase 3 (Homo sapiens) (UniProt Q9H422); details: Compound concentration 100.0 nM
[17] = biological target: Tyrosine-protein kinase Fgr (Homo sapiens, UniProt P09769); details: Compound concentration 100.0 nM
[18] = biological target: Tyrosine-protein kinase Fes/Fps (Homo sapiens) (UniProt P07332); details: Compound concentration 100.0 nM
[19] = biological target: Ephrin type-B receptor 4 (Homo sapiens) (UniProt P54760); details: Compound concentration 100.0 nM
[20] = biological target: Serine/threonine-protein kinase 17B (Homo sapiens) (UniProt O94768); details: Compound concentration 100.0 nM
[21] = biological target: Ribosomal protein S6 kinase alpha-4 (Homo sapiens) (UniProt O75676); details: Compound concentration 100.0 nM; remark: listed apart in the source
[22] = biological target: Serine/threonine-protein kinase Nek3 (Homo sapiens) (UniProt P51956); details: Compound concentration 100.0 nM
[23] = biological target: Serine/threonine-protein kinase OSR1 (Homo sapiens) (UniProt O95747); details: Compound concentration 100.0 nM
[24] = biological target: Cyclin-dependent kinase 4 (Homo sapiens) (UniProt P11802); details: Compound concentration 100.0 nM
[25] = biological target: Serine/threonine-protein kinase 35 (Homo sapiens) (UniProt Q8TDR2); details: Compound concentration 100.0 nM
[26] = biological target: Cyclin-dependent kinase 13 (Homo sapiens) (UniProt Q14004); details: Compound concentration 100.0 nM
[27] = biological target: Alpha-2A adrenergic receptor (Homo sapiens) (UniProt P08913); details: Compound concentration 10.0 uM
[28] = biological target: Dual specificity protein kinase TTK (Homo sapiens) (UniProt P33981); details: Compound concentration 100.0 nM
[29] = biological target: D(3) dopamine receptor (Homo sapiens) (UniProt P35462); details: Compound concentration 10.0 uM
[30] = biological target: Mitogen-activated protein kinase kinase kinase 19 (Homo sapiens) (UniProt Q56UN5); details: Compound concentration 100.0 nM
[31] = biological target: TGF-beta receptor type-1 (Homo sapiens) (UniProt P36897); details: Compound concentration 100.0 nM
[32] = biological target: Uncharacterized serine/threonine-protein kinase SBK3 (Homo sapiens) (UniProt P0C264); details: Compound concentration 100.0 nM
[33] = biological target: Mast/stem cell growth factor receptor Kit (Homo sapiens) (UniProt P10721); details: Compound concentration 100.0 nM
[34] = biological target: Serine/threonine-protein kinase PLK1 (Homo sapiens) (UniProt P53350); details: Compound concentration 100.0 nM
[35] = biological target: 5-hydroxytryptamine receptor 3A (Homo sapiens) (UniProt P46098); details: Compound concentration 10.0 uM
[36] = biological target: Aurora kinase A (Homo sapiens) (UniProt O14965); details: Compound concentration 100.0 nM
[37] = biological target: Wee1-like protein kinase 2 (Homo sapiens) (UniProt P0C1S8); details: Compound concentration 100.0 nM
[38] = biological target: Serine/threonine-protein kinase 4 (Homo sapiens) (UniProt Q13043); details: Compound concentration 100.0 nM
[39] = biological target: Vascular endothelial growth factor receptor 3 (Homo sapiens) (UniProt P35916); details: Compound concentration 100.0 nM
[40] = test system: Tyrosine-protein kinase ABL1 (Homo sapiens), P00519 [Y253F]; details: Compound concentration 100.0 nM
[41] = biological target: Mitogen-activated protein kinase kinase kinase 7 (Homo sapiens) (UniProt O43318); details: Compound concentration 100.0 nM
[42] = test system: Epidermal growth factor receptor (Homo sapiens), P00533 [UNDEFINED MUTATION]; details: Compound concentration 100.0 nM
[43] = biological target: Mu-type opioid receptor (Homo sapiens) (UniProt P35372); details: Compound concentration 10.0 uM
[44] = biological target: Serine/threonine-protein kinase 10 (Homo sapiens) (UniProt O94804); details: Compound concentration 100.0 nM
[45] = biological target: NUAK family SNF1-like kinase 1 (Homo sapiens) (UniProt O60285); details: Compound concentration 100.0 nM
[46] = biological target: Alpha-1B adrenergic receptor (Homo sapiens) (UniProt P35368); details: Compound concentration 10.0 uM

Ribosomal protein S6 kinase alpha-4 (Homo sapiens), sequence (O75676 whole entry, looked up): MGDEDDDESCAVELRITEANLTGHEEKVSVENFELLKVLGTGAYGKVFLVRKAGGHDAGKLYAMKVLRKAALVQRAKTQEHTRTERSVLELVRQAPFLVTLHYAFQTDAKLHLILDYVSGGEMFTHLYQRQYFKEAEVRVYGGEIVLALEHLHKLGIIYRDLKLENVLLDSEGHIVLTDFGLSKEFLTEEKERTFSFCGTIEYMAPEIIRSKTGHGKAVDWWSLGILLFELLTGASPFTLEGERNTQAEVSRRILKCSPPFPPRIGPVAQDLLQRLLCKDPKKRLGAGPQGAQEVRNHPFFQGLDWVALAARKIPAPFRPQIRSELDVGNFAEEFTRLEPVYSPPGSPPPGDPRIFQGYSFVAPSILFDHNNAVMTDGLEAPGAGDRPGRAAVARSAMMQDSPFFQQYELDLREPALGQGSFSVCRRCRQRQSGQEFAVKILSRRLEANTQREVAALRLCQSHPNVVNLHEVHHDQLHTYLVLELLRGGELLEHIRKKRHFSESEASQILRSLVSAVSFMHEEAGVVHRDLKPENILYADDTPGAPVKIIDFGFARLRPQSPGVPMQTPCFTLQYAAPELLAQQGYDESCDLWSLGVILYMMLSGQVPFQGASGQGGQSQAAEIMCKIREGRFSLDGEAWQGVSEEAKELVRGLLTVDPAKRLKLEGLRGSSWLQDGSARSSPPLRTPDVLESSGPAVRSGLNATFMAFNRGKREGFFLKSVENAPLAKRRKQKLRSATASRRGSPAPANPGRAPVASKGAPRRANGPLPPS
Ribosomal protein S6 kinase alpha-5 (Homo sapiens), sequence (O75582 whole entry, looked up): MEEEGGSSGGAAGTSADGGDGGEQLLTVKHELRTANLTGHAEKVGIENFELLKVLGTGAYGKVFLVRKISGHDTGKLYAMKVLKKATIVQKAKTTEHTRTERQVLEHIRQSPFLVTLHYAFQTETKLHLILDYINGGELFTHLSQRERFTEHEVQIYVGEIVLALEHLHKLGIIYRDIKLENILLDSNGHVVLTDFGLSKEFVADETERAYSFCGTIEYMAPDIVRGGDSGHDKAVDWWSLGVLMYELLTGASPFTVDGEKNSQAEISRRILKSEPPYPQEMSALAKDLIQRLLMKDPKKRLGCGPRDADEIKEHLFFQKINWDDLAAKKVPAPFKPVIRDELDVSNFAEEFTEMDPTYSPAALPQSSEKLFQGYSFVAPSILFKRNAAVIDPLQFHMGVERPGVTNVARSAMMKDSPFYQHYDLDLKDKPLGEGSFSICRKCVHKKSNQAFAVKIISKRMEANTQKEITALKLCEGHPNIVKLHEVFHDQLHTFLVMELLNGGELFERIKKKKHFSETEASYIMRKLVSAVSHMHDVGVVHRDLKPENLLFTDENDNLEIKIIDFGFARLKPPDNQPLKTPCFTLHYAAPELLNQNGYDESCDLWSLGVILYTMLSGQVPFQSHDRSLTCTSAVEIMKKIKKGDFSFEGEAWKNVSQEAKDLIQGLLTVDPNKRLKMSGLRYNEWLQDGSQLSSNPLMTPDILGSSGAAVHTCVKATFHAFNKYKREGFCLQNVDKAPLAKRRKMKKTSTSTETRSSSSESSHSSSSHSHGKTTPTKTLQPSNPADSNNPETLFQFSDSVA
Tyrosine-protein kinase Fgr, sequence (P09769 2-529 limits assumed): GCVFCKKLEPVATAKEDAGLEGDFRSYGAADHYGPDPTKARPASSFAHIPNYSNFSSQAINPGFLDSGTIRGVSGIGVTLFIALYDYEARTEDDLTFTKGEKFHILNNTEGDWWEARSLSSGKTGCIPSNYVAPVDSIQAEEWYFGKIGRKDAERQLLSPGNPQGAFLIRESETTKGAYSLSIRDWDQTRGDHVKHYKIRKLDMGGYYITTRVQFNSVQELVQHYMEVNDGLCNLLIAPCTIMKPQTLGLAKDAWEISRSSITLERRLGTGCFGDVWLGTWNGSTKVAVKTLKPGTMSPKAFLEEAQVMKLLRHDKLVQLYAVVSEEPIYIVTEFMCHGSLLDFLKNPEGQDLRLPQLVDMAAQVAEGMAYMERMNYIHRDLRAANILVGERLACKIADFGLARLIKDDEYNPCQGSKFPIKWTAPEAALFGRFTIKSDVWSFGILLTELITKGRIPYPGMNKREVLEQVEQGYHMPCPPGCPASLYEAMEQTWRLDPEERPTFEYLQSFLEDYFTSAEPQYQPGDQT
Cyclin-dependent kinase-like 1 (Homo sapiens), sequence (Q00532 whole entry): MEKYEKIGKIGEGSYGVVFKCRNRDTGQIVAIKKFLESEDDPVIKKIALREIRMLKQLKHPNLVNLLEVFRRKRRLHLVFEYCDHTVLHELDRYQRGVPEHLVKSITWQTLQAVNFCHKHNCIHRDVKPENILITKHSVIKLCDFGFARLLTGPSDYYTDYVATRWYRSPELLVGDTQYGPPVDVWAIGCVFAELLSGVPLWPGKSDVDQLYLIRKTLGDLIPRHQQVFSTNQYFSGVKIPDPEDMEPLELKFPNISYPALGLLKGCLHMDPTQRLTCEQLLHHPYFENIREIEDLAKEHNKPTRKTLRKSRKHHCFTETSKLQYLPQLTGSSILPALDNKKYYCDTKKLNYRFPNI
Activin receptor type-1-like (Homo sapiens), sequence (P37023 whole entry): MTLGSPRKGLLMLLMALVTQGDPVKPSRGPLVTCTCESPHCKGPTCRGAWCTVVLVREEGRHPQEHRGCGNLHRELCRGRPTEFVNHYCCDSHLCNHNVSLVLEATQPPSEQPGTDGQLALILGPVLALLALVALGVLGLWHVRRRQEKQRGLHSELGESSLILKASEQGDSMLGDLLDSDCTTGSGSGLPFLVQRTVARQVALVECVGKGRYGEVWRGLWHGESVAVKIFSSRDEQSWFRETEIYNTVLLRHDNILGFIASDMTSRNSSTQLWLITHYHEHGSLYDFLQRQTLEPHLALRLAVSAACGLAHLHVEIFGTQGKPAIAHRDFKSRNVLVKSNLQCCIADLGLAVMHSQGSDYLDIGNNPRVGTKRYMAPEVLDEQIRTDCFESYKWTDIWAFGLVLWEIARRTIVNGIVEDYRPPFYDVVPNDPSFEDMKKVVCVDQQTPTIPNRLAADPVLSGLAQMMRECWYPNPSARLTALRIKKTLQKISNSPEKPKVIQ
Tyrosine-protein kinase Fes/Fps (Homo sapiens), sequence (P07332 whole entry): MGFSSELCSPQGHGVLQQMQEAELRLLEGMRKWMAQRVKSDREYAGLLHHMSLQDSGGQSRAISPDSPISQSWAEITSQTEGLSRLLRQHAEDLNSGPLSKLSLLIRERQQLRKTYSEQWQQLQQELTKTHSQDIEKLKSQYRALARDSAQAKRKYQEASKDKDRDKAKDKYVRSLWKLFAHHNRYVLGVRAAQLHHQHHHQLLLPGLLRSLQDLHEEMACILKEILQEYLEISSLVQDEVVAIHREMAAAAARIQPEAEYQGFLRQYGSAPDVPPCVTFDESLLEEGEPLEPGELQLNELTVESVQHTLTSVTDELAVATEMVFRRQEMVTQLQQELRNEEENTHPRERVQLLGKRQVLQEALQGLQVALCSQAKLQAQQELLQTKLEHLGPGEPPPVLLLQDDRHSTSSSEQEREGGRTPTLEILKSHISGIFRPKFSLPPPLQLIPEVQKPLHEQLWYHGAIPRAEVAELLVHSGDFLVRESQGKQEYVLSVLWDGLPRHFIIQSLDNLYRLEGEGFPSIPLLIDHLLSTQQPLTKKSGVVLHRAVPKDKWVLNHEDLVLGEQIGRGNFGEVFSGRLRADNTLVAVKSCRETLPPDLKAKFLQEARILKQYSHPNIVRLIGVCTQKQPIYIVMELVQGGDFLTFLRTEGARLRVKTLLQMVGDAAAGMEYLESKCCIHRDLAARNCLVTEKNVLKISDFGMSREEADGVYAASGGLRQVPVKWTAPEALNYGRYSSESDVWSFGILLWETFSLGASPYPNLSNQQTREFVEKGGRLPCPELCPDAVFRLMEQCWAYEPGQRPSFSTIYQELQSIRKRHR
Uncharacterized serine/threonine-protein kinase SBK3 (Homo sapiens), sequence (P0C264 whole entry): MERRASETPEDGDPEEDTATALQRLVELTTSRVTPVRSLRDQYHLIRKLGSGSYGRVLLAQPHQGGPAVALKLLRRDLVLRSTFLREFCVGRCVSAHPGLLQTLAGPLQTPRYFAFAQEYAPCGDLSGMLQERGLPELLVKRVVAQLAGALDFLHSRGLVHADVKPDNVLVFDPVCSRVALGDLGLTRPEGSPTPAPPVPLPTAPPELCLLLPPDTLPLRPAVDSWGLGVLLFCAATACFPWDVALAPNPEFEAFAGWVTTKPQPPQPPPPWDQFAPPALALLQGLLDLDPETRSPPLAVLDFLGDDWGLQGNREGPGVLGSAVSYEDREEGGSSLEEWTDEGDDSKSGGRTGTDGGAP
5-hydroxytryptamine receptor 3A (Homo sapiens), sequence (P46098 whole entry): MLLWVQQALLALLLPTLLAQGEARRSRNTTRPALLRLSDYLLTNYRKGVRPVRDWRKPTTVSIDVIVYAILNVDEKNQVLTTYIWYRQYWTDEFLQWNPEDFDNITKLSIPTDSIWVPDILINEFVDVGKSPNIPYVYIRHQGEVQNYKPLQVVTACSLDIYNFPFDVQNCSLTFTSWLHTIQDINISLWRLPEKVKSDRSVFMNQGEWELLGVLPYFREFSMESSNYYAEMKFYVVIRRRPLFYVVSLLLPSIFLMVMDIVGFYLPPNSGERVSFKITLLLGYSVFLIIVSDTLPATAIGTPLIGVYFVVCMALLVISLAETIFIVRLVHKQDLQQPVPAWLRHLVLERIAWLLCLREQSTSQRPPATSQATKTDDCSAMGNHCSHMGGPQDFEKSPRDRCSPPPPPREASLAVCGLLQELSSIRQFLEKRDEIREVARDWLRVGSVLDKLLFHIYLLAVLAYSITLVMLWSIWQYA
Serine/threonine-protein kinase 17B (Homo sapiens), sequence (O94768 whole entry): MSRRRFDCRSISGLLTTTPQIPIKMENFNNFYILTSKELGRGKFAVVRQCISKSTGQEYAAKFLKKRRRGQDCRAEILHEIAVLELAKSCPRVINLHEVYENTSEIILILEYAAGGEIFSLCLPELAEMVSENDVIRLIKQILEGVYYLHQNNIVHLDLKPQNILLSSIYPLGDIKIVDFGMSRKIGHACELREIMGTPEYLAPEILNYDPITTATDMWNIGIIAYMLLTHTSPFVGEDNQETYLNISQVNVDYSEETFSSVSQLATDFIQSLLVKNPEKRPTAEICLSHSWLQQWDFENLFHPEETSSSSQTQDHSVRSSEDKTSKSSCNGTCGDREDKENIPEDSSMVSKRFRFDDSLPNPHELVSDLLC

SMILES: Cc1ccc(-c2cnc([C@@]3(O)CC[C@H](C(=O)O)C(C)(C)C3)s2)cc1Nc1cccc(C(F)(F)F)n1 [MRL-SYKi-NC]
- residual activity [1]: 75.6%
- residual activity [2]: 100%
- residual activity [3]: 89.3%
- residual activity [4]: 100%
- residual activity [5]: 81.3%
- residual activity [6]: 69.9%
- residual activity [7]: 100%
- residual activity [8]: 100%
- residual activity [9]: 100%
- residual activity [10]: 78%
- residual activity [11]: 75.4%
- residual activity [12]: 86.1%
- residual activity [13]: 100%
- residual activity [14]: 100%
- residual activity [15]: 100%
- residual activity [16]: 88.3%
- residual activity [17]: 100%
- residual activity [18]: 100%
- residual activity [19]: 100%
- residual activity [20]: 94.6%
- residual activity [21]: 95.1%
- residual activity [22]: 82.8%
- residual activity [23]: 69.9%
- residual activity [24]: 100%
- residual activity [25]: 97.3%
- residual activity [26]: 45.7%
- inhibition [27]: 34.5%
- residual activity [28]: 78.8%
- inhibition [29]: -8.44%
- residual activity [30]: 100%
- residual activity [31]: 83%
- residual activity [32]: 100%
- residual activity [33]: 100%
- residual activity [34]: 20.2%
- inhibition [35]: -1.96%
- residual activity [36]: 60.2%
- residual activity [37]: 89.5%
- residual activity [38]: 69.1%
- residual activity [39]: 100%
- residual activity [40]: 81.9%
- residual activity [41]: 92.6%
- residual activity [42]: 67.1%
- inhibition [43]: 8.33%
- residual activity [44]: 74.5%
- residual activity [45]: 100%
- inhibition [46]: 7.9%

SMILES: Cc1cc(Nc2nccc(C)n2)cc(-c2cnc([C@@]3(O)CC[C@H](C(=O)O)C(C)(C)C3)s2)c1 [MRL-SYKi]
- residual activity [1]: 78.8%
- residual activity [2]: 100%
- residual activity [3]: 100%
- residual activity [4]: 100%
- residual activity [5]: 100%
- residual activity [6]: 100%
- residual activity [7]: 100%
- residual activity [8]: 100%
- residual activity [9]: 100%
- residual activity [10]: 100%
- residual activity [11]: 86.9%
- residual activity [12]: 100%
- residual activity [13]: 74.7%
- residual activity [14]: 66.5%
- residual activity [15]: 100%
- residual activity [16]: 87.3%
- residual activity [17]: 100%
- residual activity [18]: 100%
- residual activity [19]: 100%
- residual activity [20]: 100%
- residual activity [21]: 100%
- residual activity [22]: 50.7%
- residual activity [23]: 79.9%
- residual activity [24]: 76.9%
- residual activity [25]: 100%
- residual activity [26]: 89.5%
- inhibition [27]: -2.14%
- residual activity [28]: 74.8%
- inhibition [29]: -5.53%
- residual activity [30]: 100%
- residual activity [31]: 68.4%
- residual activity [32]: 100%
- residual activity [33]: 93.2%
- residual activity [34]: 100%
- inhibition [35]: -3.85%
- residual activity [36]: 100%
- residual activity [37]: 100%
- residual activity [38]: 100%
- residual activity [39]: 91.3%
- residual activity [40]: 100%
- residual activity [41]: 100%
- residual activity [42]: 67.7%
- inhibition [43]: 17.3%
- residual activity [44]: 100%
- residual activity [45]: 100%
- inhibition [46]: 3.23%
